Data from paper PMC12117711, “The contribution of cyclic imide stereoisomers on cereblon-dependent activity†” (Chemical Science, 2025).
Where “and” joins values, the source holds several entries; their conditions need not be identical. Equal entries are not always repeated. Where two headings read alike, the source gives them in different places. Non-standard residues stand in square brackets, D forms with d. Residues, ends and D or L forms follow the SMILES beside them. No end group written: not given here. *: point of attachment. epicN = C-terminal cyclic asparagine (aspartimide), (R)-epimer, epimer of cN, O=C1C[C@@H](N*)C(=O)N1; Aspartimide = O=C1C[C@H](N*)C(=O)N1; Fmoc = O=C(OCC1c2ccccc2-c2ccccc21)*; X3 = O=C1CC[C@@H](N*)C(=O)N1; X1 = O=C1C[C@@H](N*)C(=O)N1; X2 = O=C1CC[C@H](N*)C(=O)N1

Assays:
[1] = Time-course study of racemization of lenalidomide, photo-lenalidomide and deuterated analogs in RPMI medium; type: physicochemical; conditions: RPMI media, 37 °C, read-out: t50%ee (racemization half-life) (converted)
Method: Time-course Study of Racemization of Lenalidomide and Photo-lenalidomide in RPMI Medium To a 12-well plate, 25 μL of the indicated compound (4 mM stock solution in methanol) was added and methanol was air-dried. 1 mL of RPMI medium was added to each well containing the compound and the plate was incubated at 37 °C, 5% CO2. At the indicated time point, RPMI medium containing the compound was collected in a 5-mL Eppendorf tube, and 4 mL of HPLC-grade ethyl acetate was added to each tube. The tube was shaken for 2 min to extract the compounds into ethyl acetate. After two layers were separated, 3 mL was taken from the organic layer and filtered through sodium sulfate to remove residual water. To the same 5-mL Eppendorf tube, 3 mL of HPLC-grade ethyl acetate was added to repeat the extraction step.
The taken organic layers were combined and concentrated in vacuo to dryness. The sample was resuspended in HPLC grade isopropanol and analyzed with Waters Prep 150 LC System equipped with a chiral column with conditions indicated in the synthetic procedure.
The experimental data obtained were fitted to the following rate equation for racemization:1 […]
Where Y represents the ratio of the other enantiomer formed via racemization with constraints 2 of Top = 1 (100% conversion) and Bottom = 0 (0% conversion), Krac is the rate constant for the racemization, and t is incubation time. For the sake of symmetry, rate constants are the […]
In the analysis of the above curve fitting model, parameter estimation for Krac was carried out using nonlinear least squares regression, employing the “curve_fit” function from the SciPy library in Python. This approach yielded an estimated value for Krac. To ascertain the precision of this estimation and to quantify the associated uncertainty, the standard error of Krac was calculated based on the diagonal elements of the covariance matrix returned by the curve fitting procedure. Subsequently, to construct a 95% confidence interval for the extrapolated racemization curves, the t-distribution was employed, considering the degrees of freedom (the number of data points minus the number of fitted parameters). The critical t-value for a 95% confidence level was determined by using the “t.ppf” function from the SciPy library in Python, and the confidence interval for Krac was then derived as the following equation: […]
Where tcritical is the critical t-value for a 95% confidence level and SE(Krac) is the standard error […]
The upper and lower bounds of this interval were further utilized to generate the corresponding confidence bounds for the curve, offering a visual representation of the uncertainty inherent in […]

His6-CRBN/DDB1 = His6-CRBN/DDB1 (Homo sapiens, UniProt Q96SW2); experiment: TR-FRET ligand displacement assay (Thal-FITC tracer) with His6-CRBN/DDB1; conditions: for IC50 / pIC50 (M): Thalidomide-FITC tracer 50 nM
[2] = target: T1, GSPT1-GFP in HEK293T cells (Homo sapiens, UniProt P15170+Q96SW2); experiment: Degradation assay by flow cytometry, GSPT1-GFP; type: cell-based
T1 construct: expressed in transfected cells
Description: μg/mL), and 10% (v/v) FBS. […]
Degradation assay by flow cytometry
resuspension in DMEM +/– without phenol red. For IKZF1 degradation assay, propidium
equipped with a high throughput sampler.
using the BD FACSDiva software v9.1. For each experimental condition, the arithmetic mean
comparing compound treatment to DMSO control. […]
The same analysis was also applied to the (S)-
dependent activity, we adjusted the dose-response curves accordingly. Because dose-
within the error margins of the original curve.
squares F-test. This analysis determined whether there was a statistically significant
derived (S)-enantiomer. […]

His6-CRBN/DDB1 complex [3] = target: His6-CRBN/DDB1 complex (UniProt Q96SW2)
His6-CRBN/DDB1 complex [4] = target: T2, His6-CRBN/DDB1 complex (UniProt Q96SW2 1-442; Q16531 1-1140); experiment: AlphaScreen or HTRF; competitive TR-FRET ligand displacement; peptide titrated against recombinant His6-CRBN/DDB1 (2.5 nM) with the tracer Thalidomide-FITC (50 nM); KD from IC50 by the correction factor 1.426 (tracer KD 2-site 117.3 nM); conditions: both partners purified
T2 construct: cereblon (CRBN), E3 ligase substrate adapter; DDB1, in complex with His6-CRBN; Column 'Protein' of S0003 says only 'CRBN'; the text and legends name His6-CRBN/DDB1 for this TR-FRET assay; also called cereblon; source: recombinant

[5] = IC50 (M), Protein CRBN, protein […]
[6] = KD (M), Protein CRBN, from IC50 with Correction Factor 1.43
[7] = KD, competitive TR-FRET, His6-CRBN/DDB1
[8] = HEK293T, 3 h, flow cytometry, read-out: DC50
[9] = Protein CRBN, from IC50 with Correction Factor 1.43
[10] = KD (nM), Protein CRBN, from IC50 with Correction Factor 1.43
[11] = IC50 (nM), Protein CRBN, protein […]

Molecule: [2H]C1([2H])CC([2H])(N2Cc3c(N)cccc3C2=O)C(=O)NC1=O (racemic) [rac-Len-d3]
- half-life at 100 µM [1]: 24 to 25 h

Molecule: C[C@H](NC(=O)CNC(=O)CNC(=O)CN)C(=O)N[C@@H]1CC(=O)NC1=O [GGGAepicN] (H-GGGA-X1)
- IC50 (His6-CRBN/DDB1; [5]): 1.12e-05 M

Molecule: O=C(CNC(=O)CNC(=O)OCC1c2ccccc2-c2ccccc21)NCC(=O)N[C@@H](Cc1ccccc1)C(=O)N[C@@H]1CCC(=O)NC1=O [Fmoc-GGGFepicQ] (Fmoc-GGGF-X3)
- IC50 (His6-CRBN/DDB1; [5]): 7.69e-07 M
- Kd (His6-CRBN/DDB1; [6]): 5.39e-07 M

Molecule: [2H]C1([2H])C[C@]([2H])(N2Cc3cc(CNC(=O)Nc4ccc(C)c(Cl)c4)ccc3C2=O)C(=O)NC1=O [(S)-CC885-d3]
- Kd (His6-CRBN/DDB1; [7]): ≤ 3e-09 M
- Kd (His6-CRBN/DDB1; predicted KD of the (S)-stereoisomer, ligand displacement assay adjusted for (S)-stereoisomer, (S)-stereoisomer in the (S)-sample, corrected for racemization): 3.2e-09 ± 1e-10 M
- DC50 ([2]; (S) in the (S)-sample, read-out: predicted DC50 of the (S)-stereoisomer, adjusted for (S)-stereoisomer): 0.0012 ± 0.0003 µM
- DC50 [2, 8]: ≤ 0.002 µM

Molecule: GFP-FepicN
- in vitro monoubiquitination with K0-ubiquitin mediated by the CRL4^CRBN complex, fold over methylated GFP-FcQ (GFP-FcQMe); did not reach statistical significance (His6-CRBN/DDB1 complex [3]): 1.3 fold

Molecule: Cc1ccc(NC(=O)NCc2ccc3c(c2)CN(C2CCC(=O)NC2=O)C3=O)cc1Cl (racemic) [rac-CC-885]
- pIC50 (M) (His6-CRBN/DDB1; Protein CRBN): 8.29 M

Molecule: Nc1cccc2c1CN([C@H]1CCC(=O)NC1=O)C2=O [(S)-lenalidomide]
- half-life at 100 µM [1]: 4.2 h

Molecule: GFP-FepicQ
- in vitro monoubiquitination with K0-ubiquitin mediated by the CRL4^CRBN complex, fold over methylated GFP-FcQ (GFP-FcQMe) (His6-CRBN/DDB1 complex [3]): 2.4 fold

Molecule: Cc1sc2c(c1C)C(c1ccc(Cl)cc1)=N[C@@H](CC(=O)NCCCCCCCCC(=O)N[C@@H](Cc1ccccc1)C(=O)N[C@H]1CC(=O)NC1=O)c1nnc(C)n1-2 [JQ1-FcN]
- pIC50 (M) (His6-CRBN/DDB1; Protein CRBN): 7.42 M
- IC50 (His6-CRBN/DDB1; Protein CRBN, protein […]): 3.8e-08 M
- Kd (His6-CRBN/DDB1; [9]): 2.66e-08 M and 2.7e-08 M
- pKD (M) (His6-CRBN/DDB1; [9]): 7.57 M

Molecule: GFP-FcQ
- in vitro monoubiquitination with K0-ubiquitin mediated by the CRL4^CRBN complex, fold over methylated GFP-FcQ (GFP-FcQMe) (His6-CRBN/DDB1 complex [3]): 4.8 fold

Molecule: [2H]C1([2H])CC([2H])(N2Cc3cc(CNC(=O)Nc4ccc(C)c(Cl)c4)ccc3C2=O)C(=O)NC1=O (racemic) [rac-CC885-d3]
- Kd (His6-CRBN/DDB1; [7]): ≤ 4e-09 M
- DC50 [2, 8]: ≤ 0.002 µM

Molecule: Nc1cccc2c1CN([C@@H]1CCC(=O)NC1=O)C2=O [(R)-lenalidomide]
- half-life at 100 µM [1]: 4.3 h

Molecule: GFP-FcN
- in vitro monoubiquitination with K0-ubiquitin mediated by the CRL4^CRBN complex, fold over methylated GFP-FcQ (GFP-FcQMe) (His6-CRBN/DDB1 complex [3]): 7.1 fold

Molecule: C[C@H](NC(=O)CNC(=O)CNC(=O)CN)C(=O)N[C@H]1CC(=O)NC1=O [GGGAcN] (H-GGGA-Aspartimide)
- IC50 (His6-CRBN/DDB1; [5]): 3.44e-07 M
- Kd (His6-CRBN/DDB1; [6]): 2.42e-07 M
- Kd (His6-CRBN/DDB1; [10]): 2.42e-07 M

Molecule: O=C(CNC(=O)CNC(=O)OCC1c2ccccc2-c2ccccc21)NCC(=O)N[C@@H](Cc1ccccc1)C(=O)N[C@H]1CCC(=O)NC1=O [Fmoc-GGGFcQ] (Fmoc-GGGF-X2)
- IC50 (His6-CRBN/DDB1; [5]): 1.28e-07 M
- Kd (His6-CRBN/DDB1; [6]): 8.94e-08 M

Molecule: Cc1ccc(NC(=O)NCc2ccc3c(c2)CN(C2CCC(=O)NC2=O)C3=O)cc1Cl (racemic) [rac-CC885, CC885, reference compound]
- Kd (His6-CRBN/DDB1; [7]): ≤ 4e-09 M

Molecule: Nc1cccc2c1CN(C1CCC(=O)NC1=O)C2=O (stereo not drawn) [lenalidomide]
- half-life at 100 µM [1]: 4.2 to 4.3 h

Molecule: CN1C(=O)CCC(N2Cc3c(N)cccc3C2=O)C1=O (stereo not drawn) [Me-Len, reference compound]
- IC50 (His6-CRBN/DDB1; [5]): 1.53e-05 M
- IC50 (His6-CRBN/DDB1; [11]): 1.53e-05 M
- Kd (His6-CRBN/DDB1; [6]): 1.07e-05 M
- Kd (His6-CRBN/DDB1; [10]): 1.07e-05 M
- Kd (His6-CRBN/DDB1; [7]): 1.07e-05 M

Molecule: O=C(CNC(=O)CNC(=O)OCC1c2ccccc2-c2ccccc21)NCC(=O)N[C@@H](Cc1ccccc1)C(=O)N[C@@H]1CC(=O)NC1=O [Fmoc-GGGFepicN] (Fmoc-GGGF-X1)
- IC50 (His6-CRBN/DDB1; [11]): 4.08e-06 M
- Kd (His6-CRBN/DDB1; [6]): 2.86e-06 M
- Kd (His6-CRBN/DDB1; [7]): 2.86e-06 M and 2.87e-06 M
- IC50 (His6-CRBN/DDB1; pIC50 (M), Protein CRBN): 4.07e-06 M
- Kd (His6-CRBN/DDB1; pKD (M), Protein CRBN, from IC50 with Correction Factor 1.43): 2.88e-06 M

Molecule: [2H]C1([2H])C[C@@]([2H])(N2Cc3cc(CNC(=O)Nc4ccc(C)c(Cl)c4)ccc3C2=O)C(=O)NC1=O [(R)-CC885-d3]
- Kd (His6-CRBN/DDB1; [7]): 4.01e-07 M
- DC50 [2, 8]: 0.025 µM

Molecule: Cc1sc2c(c1C)C(c1ccc(Cl)cc1)=N[C@@H](CC(=O)NCCCCCCCCC(=O)N[C@@H](Cc1ccccc1)C(=O)N[C@H]1CCC(=O)NC1=O)c1nnc(C)n1-2 [JQ1-FcQ]
- pIC50 (M) (His6-CRBN/DDB1; Protein CRBN): 6.86 M
- IC50 (His6-CRBN/DDB1; Protein CRBN, protein […]): 1.38e-07 M
- Kd (His6-CRBN/DDB1; [9]): 9.65e-08 M and 9.7e-08 M
- pKD (M) (His6-CRBN/DDB1; [9]): 7.02 M

Molecule: O=C(CNC(=O)CNC(=O)OCC1c2ccccc2-c2ccccc21)NCC(=O)N[C@@H](Cc1ccccc1)C(=O)N[C@H]1CC(=O)NC1=O [Fmoc-GGGFcN] (Fmoc-GGGF-Aspartimide)
- Kd (His6-CRBN/DDB1; [6]): 3.67e-08 M

B1: Fmoc-GGGFcN (peptide)
peptide: Fmoc-GGGF[Aspartimide]
SMILES: O=C(CNC(=O)CNC(=O)OCC1c2ccccc2-c2ccccc21)NCC(=O)N[C@@H](Cc1ccccc1)C(=O)N[C@H]1CC(=O)NC1=O
notes: pentapeptide; the C-terminal N is cyclised to the C-terminal cyclic imide (aspartimide); source: synthetic peptide
- IC50 (His6-CRBN/DDB1 complex [4]): 0.0524 µM

B2: GGGAcN (peptide)
peptide: GGGA[Aspartimide]
notes: pentapeptide; the C-terminal N is cyclised to the C-terminal cyclic imide (aspartimide); The sheet prints no Fmoc for this peptide; also called pentapeptide bearing AcN; source: synthetic peptide
- Kd (His6-CRBN/DDB1 complex [4]): 0.242 µM

B3: GGGAepicN (peptide)
peptide: GGGA[epicN]
notes: pentapeptide; the C-terminal N is cyclised to the aspartimide and is the epimer of that in GGGAcN; The sheet prints no Fmoc for this peptide; also called pentapeptide bearing AepicN; source: synthetic peptide
- Kd (His6-CRBN/DDB1 complex [4]): 7.85 µM
